How the values were obtained:
[1] = target: T1, recombinant N-terminal GST-tagged human Rho kinase 1 (ROCK1, amino acids 1-535) (Homo sapiens, UniProt Q13464); test: In vitro Rho kinase assay (luciferase-based ATP consumption), ROCK1; format: biochemical
T1 construct: ROCK1, amino acids 1-535, Invitrogen Inc., cat. #PV-3691; GST (N); purchased Invitrogen Inc. PV-3691
Procedure: (§1) Rho kinase biochemical assays described below depend on firefly luciferase-based, indirect measurement of total ATP consumption by the kinase following incubation with substrate and ATP. 25 μl of Rho kinase assay buffer (20 mM Tris-HCL [pH 7.5], 1 mM MgCl2, 0.4 mM CaCl2, 0.15 mM EGTA, 0.1 mg/ml bovine serum albumin) containing 0.82 μg/ml of recombinant N-terminal GST-tagged human Rho kinase 1 (ROCK1, amino acids 1-535, Invitrogen Inc., cat. #PV-3691) or recombinant N-terminal GST-tagged human Rho kinase 2 (ROCK2, amino acids 1-552, Invitrogen Inc., cat #PV3759), 100 μg/ml S6 peptide substrate (related to amino acids 218-249 of the human 40S ribosomal protein S6, and suitable for ROCK1 or ROCK2, e.g. Upstate/Millipore Inc., cat #12-420), and 3 µM ATP are dispensed to wells of a 384 multi-well opaque plate. The plate is centrifuged for 30 seconds at approximately 200×g. 240 nl of test compound in DMSO is dispensed to each well by passive pin transfer. The lag phase of this in vitro kinase reaction permits addition of compounds soon after the reaction initiates. The reaction is allowed to incubate at 30° C. for 2 hours. The assay plates are sealed and maintained in a humidified environment. After 2 hours, 25 μl of easyLite protein kinase assay reagent (Perkin-Elmer, Inc.) is dispensed. After an additional 10 minute incubation at room temperature (about 22° C.), luminescence activity is measured on a Molecular Devices Analyst multi-mode plate reader or other suitable plate reader. Kinase inhibition results in less ATP consumption, and therefore increased luminescence signal. Negative control activity is measured with DMSO lacking any test compound. The positive control is 2-methyl-1-(4-methylisoquinolin-5-ylsulfonyl)perhydro-1,4-diazepine hydrochloride (aka H-1152P, HCl salt). Efficacy is measured as a percentage of positive control activity. […] In some cases, kinase reactions and compound testing are performed in 1536 multi-well plates under similar conditions, with assay volumes appropriately scaled. The designated NT means the cited example was not tested.

[2] = target: T2, recombinant N-terminal GST-tagged human Rho kinase 2 (ROCK2, amino acids 1-552) (Homo sapiens, UniProt O75116); test: In vitro Rho kinase assay (luciferase-based ATP consumption), ROCK2; format: biochemical
T2 construct: ROCK2, amino acids 1-552, Invitrogen Inc., cat #PV3759; GST (N); purchased Invitrogen Inc. PV3759
Procedure: as §1

T2 sequence (O75116 1-552): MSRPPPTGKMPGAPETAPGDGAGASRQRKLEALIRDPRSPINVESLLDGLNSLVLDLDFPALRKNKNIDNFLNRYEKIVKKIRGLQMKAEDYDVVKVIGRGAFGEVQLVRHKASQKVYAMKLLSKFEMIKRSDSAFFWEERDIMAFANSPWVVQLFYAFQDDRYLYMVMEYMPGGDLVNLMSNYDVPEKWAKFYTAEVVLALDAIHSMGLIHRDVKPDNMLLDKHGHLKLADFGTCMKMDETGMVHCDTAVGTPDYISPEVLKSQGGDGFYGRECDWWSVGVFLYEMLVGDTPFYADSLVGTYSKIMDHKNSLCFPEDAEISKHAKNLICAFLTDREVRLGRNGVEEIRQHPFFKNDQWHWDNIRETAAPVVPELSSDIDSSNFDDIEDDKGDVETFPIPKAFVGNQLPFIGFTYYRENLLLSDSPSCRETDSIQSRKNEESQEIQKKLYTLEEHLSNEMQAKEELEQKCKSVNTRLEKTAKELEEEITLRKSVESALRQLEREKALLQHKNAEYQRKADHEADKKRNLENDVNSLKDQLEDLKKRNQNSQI
T1 sequence (Q13464 1-535): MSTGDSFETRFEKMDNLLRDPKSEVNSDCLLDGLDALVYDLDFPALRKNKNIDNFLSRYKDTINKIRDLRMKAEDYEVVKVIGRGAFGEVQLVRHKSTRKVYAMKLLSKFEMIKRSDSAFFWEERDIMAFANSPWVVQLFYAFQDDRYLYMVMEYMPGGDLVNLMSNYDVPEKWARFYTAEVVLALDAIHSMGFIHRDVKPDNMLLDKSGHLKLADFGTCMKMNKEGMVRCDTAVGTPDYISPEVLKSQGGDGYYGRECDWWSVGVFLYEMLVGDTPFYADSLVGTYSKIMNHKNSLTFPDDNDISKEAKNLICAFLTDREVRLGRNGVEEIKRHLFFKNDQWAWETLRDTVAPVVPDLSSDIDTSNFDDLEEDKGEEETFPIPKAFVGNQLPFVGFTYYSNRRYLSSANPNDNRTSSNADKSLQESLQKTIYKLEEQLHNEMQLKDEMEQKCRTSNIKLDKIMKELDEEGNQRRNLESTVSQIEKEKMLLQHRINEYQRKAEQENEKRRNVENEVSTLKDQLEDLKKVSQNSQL

| SMILES | IC50 [1] | IC50 [2] |
| --- | --- | --- |
| c1ccc2c(NCc3nc(-c4ccncc4)n[nH]3)ncnc2c1 [Example 53, N-((3-(Pyridin-4-yl)-1H-1,2,4-triazol-5-yl)methyl)quinazolin-4-amine] | > 5 µM | > 5 µM |
| Cc1ccc(C(=O)NCc2nc(-c3ccncc3)n[nH]2)c(O)c1 [Example 27, 2-hydroxy-4-methyl-N-((3-(pyridin-4-yl)-1H-1,2,4-triazol-5-yl)methyl) benzamide] | < 5 µM | < 5 µM |
| CC(NC(=O)c1cccs1)c1nc(-c2ccncc2)n[nH]1 (stereo not drawn) [Example 65, N-(1-(3-(Pyridin-4-yl)-1H-1,2,4-triazol-5-yl)ethyl)thiophene-2-carboxamide] | < 5 µM | < 5 µM |
| O=C(NCc1nc(-c2ccncc2)n[nH]1)c1nccs1 [Example 20, N-((3-(pyridin-4-yl)-1H-1,2,4-triazol-5-yl)methyl) thiazole-2-carboxamide] | < 5 µM | < 5 µM |
| COC(=O)c1ccc(C(=O)NCc2nc(-c3ccncc3)n[nH]2)cc1 [Example 30, Methyl 4-((3-(pyridin-4-yl)-1H-1,2,4-triazol-5-yl)methylcarbamoyl)benzoate] | < 5 µM | < 5 µM |
| CN(Cc1nc(-c2ccncc2)n[nH]1)C(=O)c1cccs1 [Example 57, N-Methyl-N-((3-(pyridin-4-yl)-1H-1,2,4-triazol-5-yl)methyl)thiophene-2-carboxamide] | > 5 µM | > 5 µM |
| CCc1cccc(C(=O)NCc2nc(-c3ccncc3)n[nH]2)c1O [Example 52, 3-Ethyl-2-hydroxy-N-((3-(pyridin-4-yl)-1H-1,2,4-triazol-5-yl)methyl)benzamide] | < 5 µM | < 5 µM |
| CC(C)(C)C(=O)Oc1ccc(C(=O)NCc2nc(-c3ccncc3)n[nH]2)c(O)c1 [Example 39, 3-Hydroxy-4-((3-(pyridin-4-yl)-1H-1,2,4-triazol-5-yl)methylcarbamoyl)phenyl pivalate] | < 5 µM | > 5 µM |
| Cn1nc(-c2ccncc2)nc1CNC(=O)c1cccs1 [Example 50, N-((1-Methyl-3-(pyridin-4-yl)-1H-1,2,4-triazol-5-yl)methyl)thiophene-2-carboxamide] | > 5 µM | > 5 µM |
| CC(C)(C)OC(=O)NC[C@H](NC(=O)c1ccc(O)cc1O)c1nc(-c2ccncc2)n[nH]1 [Example 79, (S)-tert-Butyl 2-(2,4-dihydroxybenzamido)-2-(3-(pyridin-4-yl)-1H-1,2,4-triazol-5-yl)ethylcarbamate] | < 5 µM | < 5 µM |
| COc1cccc(C(=O)NCc2nc(-c3ccncc3)n[nH]2)c1 [Example 18, 3-methoxy-N-((3-(pyridin-4-yl)-1H-1,2,4-triazol-5-yl)methyl)benzamide] | > 5 µM | > 5 µM |
| O=C(NCc1c[nH]c(-c2ccncc2)n1)c1cccs1 [Example 14] | > 5 µM | > 5 µM |
| O=C(NCc1nc(-c2ccncc2)n[nH]1)c1cccc(Cl)c1O [Example 26, 3-chloro-2-hydroxy-N-((3-(pyridin-4-yl)-1H-1,2,4-triazol-5-yl)methyl)benzamide] | < 5 µM | < 5 µM |
| c1ccc(COc2ccc(CNCc3nc(-c4ccncc4)n[nH]3)cc2)cc1 [Example 56, N-(4-(Benzyloxy)benzyl)-1-(3-(pyridin-4-yl)-1H-1,2,4-triazol-5-yl)methanamine] | > 5 µM | > 5 µM |
| CS(=O)(=O)Nc1ccc(C(=O)NCc2nc(-c3ccncc3)n[nH]2)cc1 [Example 44, 4-(Methylsulfonamido)-N-((3-(pyridin-4-yl)-1H-1,2,4-triazol-5-yl)methyl)benzamide] | > 5 µM | > 5 µM |
| O=C(NCc1nc(-c2ccncc2)n[nH]1)c1ccc(O)cc1 [Example 28, 4-hydroxy-N-((3-(pyridin-4-yl)-1H-1,2,4-triazol-5-yl)methyl)benzamide] | < 5 µM | < 5 µM |
| O=C(NCc1nc(-c2ccncc2)n[nH]1)c1cccc2c1OCC2 [Example 43, N-((3-(pyridin-4-yl)-1H-1,2,4-triazol-5-yl)methyl)-2,3-dihydrobenzofuran-7-carboxamide] | < 5 µM | > 5 µM |
| CN(Cc1nc(-c2ccncc2)n[nH]1)C(=O)c1ccc(O)cc1O [Example 58, 2,4-Dihydroxy-N-methyl-N-((3-(pyridin-4-yl)-1H-1,2,4-triazol-5-yl)methyl)benzamide] | > 5 µM | > 5 µM |
| O=C(NCc1nc(-c2ccncc2)n[nH]1)c1ccsc1 [Example 17, N-((3-(pyridin-4-yl)-1H-1,2,4-triazol-5-yl)methyl)thiophene-3-carboxamide] | < 5 µM | < 5 µM |
| O=C(NCc1nc(-c2ccncc2)c[nH]1)c1cccs1 [Example 5, N-((4-(pyridin-4-yl)-1H-imidazol-2-yl)methyl)thiophene-2-carboxamide] | < 5 µM | < 5 µM |
| Cc1ccc(C(=O)NCc2nc(-c3ccncc3)n[nH]2)s1 [Example 49, 5-Methyl-N-((3-(pyridin-4-yl)-1H-1,2,4-triazol-5-yl)methyl)thiophene-2-carboxamide] | < 5 µM | < 5 µM |
| Cc1cccc(C(=O)NCc2cc(-c3ccncc3)n[nH]2)c1O [Example 10, 2-hydroxy-3-methyl-N-((3-(pyridin-4-yl)-1H-pyrazol-5-yl)methyl)benzamide] | < 5 µM | < 5 µM |
| COc1ccc(C(=O)NCc2nc(-c3ccncc3)n[nH]2)c(O)c1 [Example 24, 2-hydroxy-4-methoxy-N-((3-(pyridin-4-yl)-1H-1,2,4-triazol-5-yl)methyl)benzamide] | < 5 µM | < 5 µM |
| COc1ccc(C(=O)NCc2nc(-c3ccncc3)n[nH]2)cc1 [Example 19, 4-methoxy-N-((3-(pyridin-4-yl)-1H-1,2,4-triazol-5-yl)methyl)benzamide] | < 5 µM | < 5 µM |
| O=C(NCc1c[nH]c(-c2ccncc2)n1)c1ccc(O)cc1O [Example 12, 2,4-dihydroxy-N-((2-(pyridin-4-yl)-1H-imidazol-4-yl)methyl)benzamide] | < 5 µM | < 5 µM |
| CS(=O)(=O)Nc1cccc(C(=O)NCc2nc(-c3c[nH]c4ncccc34)n[nH]2)c1 [Example 72, N-((3-(1H-pyrrolo[2,3-b]pyridin-3-yl)-1H-1,2,4-triazol-5-yl)methyl)-3-(methylsulfonamido)benzamide] | < 5 µM | < 5 µM |
| O=C(NCc1nc(-c2ccncc2)n[nH]1)c1ccccc1O [Example 25, 2-hydroxy-N-((3-(pyridin-4-yl)-1H-1,2,4-triazol-5-yl)methyl)benzamide] | < 5 µM | < 5 µM |
| COc1cccc(C(=O)NCc2nc(-c3ccncc3)no2)c1 [Example 3, 3-methoxy-N-((3-(pyridin-4-yl)-1,2,4-oxadiazol-5-yl)methyl)benzamide] | > 5 µM | > 5 µM |
| O=C(c1cccs1)N1CCn2nc(-c3ccncc3)nc2C1 [Example 62, (2-(Pyridin-4-yl)-5,6-dihydro-[1,2,4]triazolo[1,5-a]pyrazin-7(8H)-yl)(thiophen-2-yl)methanone] | > 5 µM | > 5 µM |
| COc1cccc(C(=O)NCc2nc(-c3c[nH]c4ncccc34)cs2)c1 [Example 74, N-((4-(1H-pyrrolo[2,3-b]pyridin-3-yl)thiazol-2-yl)methyl)-3-methoxybenzamide] | < 5 µM | < 5 µM |

From patent US20080021217A1, “HETEROCYCLIC INHIBITORS OF RHO KINASE” (priority 2006, published 2008)
